{"source": "patent US20040147522A1", "about": "“Compounds having both alpha7 nicotinic agonist activity and 5HT3 antagonist activity for the treatment of CNS diseases” (priority 2002, published 2004)", "origin": "cited, not measured here", "key": {"α7 nAChR": {"target": "α7 nAChR (Homo sapiens, UniProt P36544)", "sequence (P36544 23-502)": "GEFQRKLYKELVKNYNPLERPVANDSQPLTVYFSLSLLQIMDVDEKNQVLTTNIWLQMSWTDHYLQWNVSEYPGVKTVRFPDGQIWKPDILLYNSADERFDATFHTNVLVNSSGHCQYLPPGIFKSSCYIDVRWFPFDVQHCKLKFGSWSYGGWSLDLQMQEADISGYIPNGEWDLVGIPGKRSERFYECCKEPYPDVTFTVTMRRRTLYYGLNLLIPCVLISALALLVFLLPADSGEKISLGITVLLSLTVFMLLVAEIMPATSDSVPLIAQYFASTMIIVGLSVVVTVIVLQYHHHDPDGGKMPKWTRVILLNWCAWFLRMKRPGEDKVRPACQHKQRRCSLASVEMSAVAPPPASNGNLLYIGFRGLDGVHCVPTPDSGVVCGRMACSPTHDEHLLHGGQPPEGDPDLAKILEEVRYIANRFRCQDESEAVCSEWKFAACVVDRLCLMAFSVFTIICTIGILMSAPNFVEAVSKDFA"}, "5HT3R": {"target": "T1, 5HT3R (Homo sapiens, UniProt P46098)", "T1 sequence (P46098 24-478)": "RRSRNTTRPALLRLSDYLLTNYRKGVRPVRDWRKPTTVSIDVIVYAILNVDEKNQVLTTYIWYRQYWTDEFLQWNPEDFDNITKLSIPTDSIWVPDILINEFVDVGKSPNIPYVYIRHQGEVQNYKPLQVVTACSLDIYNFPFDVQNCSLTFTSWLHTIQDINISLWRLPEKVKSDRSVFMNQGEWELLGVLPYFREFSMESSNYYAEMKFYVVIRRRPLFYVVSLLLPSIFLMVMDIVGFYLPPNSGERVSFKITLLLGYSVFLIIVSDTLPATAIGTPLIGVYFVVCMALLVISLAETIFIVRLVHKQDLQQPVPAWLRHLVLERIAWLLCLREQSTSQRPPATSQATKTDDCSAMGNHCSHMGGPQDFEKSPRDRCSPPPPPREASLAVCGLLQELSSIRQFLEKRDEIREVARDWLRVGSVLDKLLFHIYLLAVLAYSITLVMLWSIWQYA"}}, "data": [{"smiles": "Cc1nccn1CC1CCc2c(c3ccccc3n2C)C1=O", "note": "(stereo not drawn) [Ondansetron]", "values": [{"measurement": "activity at the α7 nAChR", "setting": "α7 nAChR", "result": "little activity"}]}, {"smiles": "COc1ccc(/C=C2\\CCCN=C2c2cccnc2)c(OC)c1", "note": "[GTS-21]", "values": [{"measurement": "activity at the 5HT3R", "setting": "5HT3R", "result": "little activity"}]}, {"smiles": "CN1[C@@H]2CC[C@H]1C[C@@H](OC(=O)c1c[nH]c3ccccc13)C2", "note": "[tropesitron]", "values": [{"measurement": "α7 nicotinic agonist activity", "setting": "α7 nAChR; reported by Macor et al. 2001", "result": "α7 nicotinic agonist activity"}]}]}
